Assay results taken from ChEMBL document CHEMBL1201862, “PubChem BioAssay data set” (2004).
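Method: 48-hour compound exposure of cells in 96-well plates, five concentrations, linear interpolation of endpoints. GI50 marks 50% less growth.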 Activity calls are given as the source filed them. Rule as the data show it: active = GI50 up to about 1.1 µM and inactive = higher.

Legend:
Assay in all cases: NCI-60 cell line screen, 48 h
[1] = test system: ACHN
[2] = test system: COLO 205
[3] = test system: EKVX
[4] = test system: HCC 2998
[5] = test system: HL-60
[6] = test system: HOP-92
[7] = test system: Hs-578T
[8] = test system: IGROV-1
[9] = test system: LOX IMVI
[10] = test system: M14
[11] = test system: MOLT-4
[12] = test system: NCI-H23
[13] = test system: NCI-H460
[14] = test system: OVCAR-8
[15] = test system: PC-3
[16] = test system: RXF 393
[17] = test system: SK-MEL-2
[18] = test system: SK-MEL-5
[19] = test system: SW-620
[20] = test system: TK-10

Measured: GI50

CCOC(=O)C(NC(=O)c1ccccc1)(Nc1ccc(Cl)cc1C(F)(F)F)C(F)(F)F (stereo not given)
inactive: [1] 9.42 µM | [2] 4.58 µM | [3] 5.6 µM | [4] > 28.3 µM | [5] 1.98 µM | [6] 4.99 µM | [7] 39.3 µM | [8] 4.03 µM | [9] 5.33 µM | [10] 4.13 µM | [11] 2.55 µM | [12] 4.59 µM | [13] > 20.5 µM | [14] 5.36 µM | [15] 3.13 µM | [16] 3.44 µM | [17] 4.74 µM | [18] 4.91 µM | [19] 2.88 µM | [20] 8.26 µM
